{"source": "patent US20260337212A1", "about": "“IP4-4,6 SUBSTITUTED DERIVATIVE COMPOUNDS FOR USE IN THE TREATMENT, INHIBITION OF PROGRESSION, AND PREVENTION OF ECTOPIC CALCIFICATION” (SANIFIT THERAPEUTICS, S.A., priority 2022, published 2026)", "key": {"[1]": {"assay": "Rat vitamin D3 model: tissue calcium content (ICP-OES)", "format": "in vivo, Sprague Dawley rat", "conditions": "5, 15, 45 mg/kg s.c. daily D1-D13", "experimental": "FIG. 12 represents the mean calcium content (±SD) in Sham rats (no VitD3 treatment) and rats treated with vehicle or Compound 27 (5, 15, and 45 mg/kg) in (A) aorta, (B) heart, (C) femoral artery, (D) carotid arteries, and (E) kidney. For femoral and carotid arteries, the mean of the calcium content in left and right vessels was used. Statistical analysis: One-way ANOVA with Fisher's LSD test for post-hoc comparisons. (#) indicates significant differences vs. sham, (*) indicates significant differences vs vehicle, (§) indicates significant differences vs Compound 27 5 mg/kg (only applies to other Compound 27 doses), (¥) indicates significant differences vs Compound 27 15 mg/kg (only applies to Compound 27 45 mg/kg), p<0.05. N=7-12 animals/group.\nThe model evaluated the effects of Compound 27 on tissue calcification, blood perfusion, and walking ability in rats for a duration of 13 days. Tissue calcification was induced in groups 2-5 from D1 to D3. Animals induced with calcification were administered placebo or active agent formulations from D1 onwards to assess their effects in preventing calcification. The impact of treatment on tissue calcification, blood perfusion, and walking ability was evaluated. Observations were taken at several points during the treatment from D0 to D13. All animals were weighed every day before treatment.\nFifty-eight male Sprague Dawley (SD) rats (Envigo Corp., Huntingdon, GB) weighing approximately 275-300 g were used. The animals were fed with a standard LASQCdiet® Rod14-H4 diet (LASvendi, Soest, DE). The animals were divided in 5 groups, 10 to 12 animals per group, as follows: • Group 1—Control (sham), 10 animals • Group 2—Physiological saline solution (placebo) daily, 12 animals • Group 3—Compound 27, 5 mg/kg daily, 12 animals • Group 4—Compound 27, 15 mg/kg daily, 12 animals • Group 5—Compound 27, 45 mg/kg daily, 12 animals\nCalcification was induced in the animals of groups 2-5 by subcutaneous administration of 120,000 IU/kg vitamin D3 (cholecalciferol, Duphafral D3 1000; Zoetis Inc., Parsippany, NJ, US) in physiological saline 0.9% (w/v) NaCl solution (2 mL/kg) daily from D1 to D3. Animals in group 1 were administered 2 mL/kg of physiological saline solution daily from D1 to D3 via subcutaneous route with no vitamin D3. Animals in group 2 were administered 2 mL/kg of physiological saline solution daily from D1 to D13 via subcutaneous route. Animals in groups 3, 4, and 5 were administered 5 mg/kg, 15 mg/kg, and 45 mg/kg, respectively, of Compound 27 (754.45 g/mol free acid) daily in physiological saline solution (2 mL/kg) from D1 to D13 via subcutaneous route.\nAll the living animals of groups 1-5 were sacrificed in D13 for determining their Ca values in tissue (i.e., aorta, carotids, femoral, heart, kidney).\nThe animals were exsanguinated before sacrifice. Their necropsies were performed, and their whole right and left femoral arteries, left and right carotids, aorta, heart, and right kidney were collected for calcium content measurement. The tissues were lyophilized for 24 h and weighed. The lyophilized tissues were then digested using a 1:1 HNO3:HClO4 mixture in a dry bath incubator for 2-4 h at 180° C. The digested tissues were subsequently diluted using ultra-pure Milli-Q water (MilliporeSigma, Merck KGaA, Burlington, MA, US) to a final volume of 5 mL (for femoral and carotid) or 10 mL (for heart, kidney and aorta). Calcium content was quantified via inductively coupled plasma optical emission spectrometry (ICP-OES) using an Optima 7300 DV ICP-OES System spectrometer (PerkinElmer, Inc., Waltham, MA, US) according to the manufacturer's instructions."}, "[2]": {"assay": "Rat vitamin D3 model: walking ability, forced incremental treadmill test", "format": "in vivo, Sprague Dawley rat", "experimental": "FIG. 14 depicts the mean maximum walking distance (±SD) in Sham rats (no VitD3 treatment) and rats treated with vehicle, Compound 27 (5, 15, and 45 mg/kg). Statistical analysis: One-way ANOVA with Fisher's LSD test for post-hoc comparisons. The result of the ANOVA was p<0.0001. (#) indicates significant differences vs. sham, (*) indicates significant differences vs vehicle, (§) indicates significant differences vs Compound 27 5 mg/kg (only applies to other Compound 27 doses), (¥) indicates significant differences vs Compound 27 15 mg/kg (only applies to Compound 27 45 mg/kg), (‡) significant differences vs Compound 27 45 mg/kg, p<0.05.\nThe model evaluated the effects of Compound 27 on tissue calcification, blood perfusion, and walking ability in rats for a duration of 13 days. Tissue calcification was induced in groups 2-5 from D1 to D3. […] The impact of treatment on tissue calcification, blood perfusion, and walking ability was evaluated. […]\nMaximal walking time (MWT) and maximal walking distance (MWD) were assessed by forced incremental treadmill running tests using a two-lane touch screen treadmill device for rats (Cat. No. LE8709TS, Panlab, Harvard Biosciences, Inc., Holliston, MA, US) with a 15% inclination. […]\nFor group 2, the treadmill assessment started 15 min after dosing. […] MWD (in meters) and MWT (in minutes) were recorded for each animal."}}}
{"substance": "4,6-O-bis(5-acetamidopentyl)-myo-inositol-1,2,3,5-tetrakis(phosphate) octasodium salt [Compound 27]", "values": [{"measurement": "Inhibition of ectopic calcification in all evaluated tissues", "setting": "[1]; aorta, carotids, femoral, heart, kidney", "result": "inhibits ectopic calcification in all the evaluated tissues"}, {"measurement": "Inhibition of calcification in aorta", "setting": "[1]; aorta, FIG. 12A", "result": "observed at 45 mg/kg"}, {"measurement": "Inhibition of calcification in the carotids", "setting": "[1]; carotids, FIG. 12D", "result": "observed at 45 mg/kg"}, {"measurement": "Inhibition of calcification in the femoral arteries", "setting": "[1]; femoral arteries, FIG. 12C", "result": "dose-response effect from 5 mg/kg"}, {"measurement": "Inhibition of calcification in the heart", "setting": "[1]; heart, FIG. 12B", "result": "dose-response effect from 5 mg/kg"}, {"measurement": "Inhibition of calcification in the kidneys", "setting": "[1]; kidney, FIG. 12E", "result": "dose-response effect from 5 mg/kg"}, {"measurement": "Effect on maximum walking distance", "setting": "[2]; 5, 15, 45 mg/kg s.c. daily, FIG. 14", "result": "dose-response effect from 5 mg/kg"}, {"measurement": "Improvement of walking ability", "setting": "[2]; 15 and 45 mg/kg s.c. daily, as early as D5 after induction", "result": "improves the walking ability of rats administered with vitamin D as early as D5 after the induction of the PAD disease, in a dose-response manner"}]}
